Data from paper PMC6669608, “Evaluation of Oxasqualenoids from the Red Alga Laurencia viridis against Acanthamoeba” (Marine Drugs, 2019).
Like-named read-outs stand apart in the source and are kept apart here.

What was measured:
[1] = system: Acanthamoeba castellanii Neff trophozoites; design: method as in PMID 30423882; details: previous work; read-out: IC50 against Acanthamoeba castellanii Neff; cited from earlier work
[2] = Cytotoxicity assay (alamarBlue); format: cell-based, murine; design: CC50, toxicity against murine macrophage J774A.1 (unit not given): unit not given beside the values; details: mouse, 24 h, 37 °C, read-out: CC50, toxicity against murine macrophage J774.A1
Method: (§1) The antiamoeboid activity of the compounds was evaluated against Acanthamoeba castellanii Neff (ATCC 30010) type strain from the American Type Culture Collection. This strain was axenically incubated in PYG medium (0.75% (w/v) proteose Peptone, 0.75% (w/v) Yeast extract, and 1.5% (w/v) Glucose) supplemented with 10 µg/mL gentamicin (Sigma-Aldrich, Madrid, Spain). As for the cytotoxicity assays, murine macrophages J774A.1 (ATCC TIB-67) were used, cultivated in DMEM medium (Dulbecco’s modified eagle medium, Gibco Life Technologies, California, USA) with 10% supplement of fetal bovine serum (FBS) and 10 µg/mL gentamicin at 37 °C in a 5% CO2 incubator.
(§2) The cytotoxicity of the tested compounds was determined in vitro with murine macrophages (J774A.1). For this assay, the DMEM culture medium was changed from RPMI without phenol red (Roswell Park Memorial Institute, Thermo Fisher Scientific Inc., Waltham, MA, USA) to L-Glutamine supplemented with 10% (v/v) inactivated FBS and with 10 µg/mL gentamicin. In this assay, the macrophages were counted and seeded into a 96-well microtiter plate, adding 50 µL to each well from a stock solution of 2 × 10^5 cells/mL. Cells were then left to adhere for 15 min to the plate bottom and were checked with the inverted microscope Leica DMIL. After that, 50 µL of a serial dilution of the compounds was added to the 96-well microtiter plate. Finally, alamarBlue™ was added into each well at an amount equal to 10% of the final volume and incubated at 37 °C in the presence of CO2 at 5% for 24 h. After this period of time, as in the in vitro anti-Acanthamoeba assay, the fluorescence was determined with an EnSpire Multimode Plate Reader (PerkinElmer, Inc, Waltham, MA, USA) at a wavelength of 570/585 nm. The cytotoxicity concentration to inhibit the growth of 50% of murine macrophages (CC50) was calculated through nonlinear regression analysis with 95% confidence limits using the software Sigma Plot 12.0 (Systat Software, Inc, San Jose, CA 95110 USA). Experiments were performed three times each, allowing for standard deviation.

[3] = system: Acanthamoeba castellanii Neff trophozoites; test: In vitro activity against Acanthamoeba trophozoites (alamarBlue colorimetric assay); format: cell-based, Acanthamoeba castellanii Neff (ATCC 30010); details: 96 h, read-out: IC50 against Acanthamoeba castellanii Neff
Method: as §1
The in vitro activities of the different compounds of Laurencia were evaluated using a previously developed colorimetric assay based on the alamarBlue™ Cell Viability Reagent assay (Life Technologies, Barcelona, Spain). Briefly, 50 µL of 5 × 10⁴ trophozoites/mL were seeded onto a 96-well microtiter plate. After 15 min, the adherence of the cells to the plate bottom was confirmed by the use of the inverted microscope Leica DMIL (Leica, Wetzlar, Germany). Furthermore, 50 µL of serial dilutions of each compound was added to the 96-well microtiter plate. Finally, alamarBlue™ was placed into each well at 10% of the final volume and incubated at 26 °C with slight agitation. After 96 h, the fluorescence was measured with EnSpire Multimode Plate Reader (Perkin Elmer, Madrid, Spain) at a wavelength of 570/585 nm. The inhibitory concentration to inhibit the growth of 50% of the parasites (IC50) was calculated through nonlinear regression analysis with 95% confidence limits using the software Sigma Plot 12.0 (Systat Software Inc., London, UK). The experiments were performed three times each, allowing for standard deviation.

[4] = system: murine macrophages J774A.1; test: Cytotoxicity assay (alamarBlue); format: cell-based; design: CC50, toxicity against murine macrophage J774A.1 (unit not given): unit not given beside the values; details: for CC50, toxicity against murine macrophage J774A.1 (unit not given): mouse
Method: as §1, §2

[5] = system: Acanthamoeba castellanii Neff trophozoites; test: In vitro activity against Acanthamoeba trophozoites (alamarBlue colorimetric assay); format: cell-based, Acanthamoeba castellanii Neff (ATCC 30010); details: 42.5 µM (25 µg/mL)

Compound	CC50 at 24 h ([2]; J774A.1 murine macrophages)	IC50 ([3]; trophozoites, 26 °C)	CC50 [2]	also measured
3α-bromojohnstane	–	–	–	IC50 [1]: 41.5 µM
C[C@@H](c1ncncc1F)[C@](O)(Cn1cncn1)c1ccc(F)cc1F [Voriconazole, voriconazole, reference compound]	2.64 ± 0.27 µM	0.94 ± 0.29 µM	–	–
C=C(CC[C@H](O)[C@@]1(C)CC[C@](O)(C(C)(C)O)O1)[C@H]1CC[C@H]2O[C@@H]([C@]3(C)CC[C@@H](Br)C(C)(C)O3)CC[C@]2(C)O1 [Compound 4, 22-hydroxydehydrothyrsiferol]	–	17 ± 4.57 µM	> 100 µM	toxicity against murine macrophages (in words) [4]: not toxic against murine macrophages; CC50, toxicity against murine macrophage J774A.1 (unit not given) [4]: < 50
CC(C)(O)[C@H]1CC[C@](C)([C@@H]2CC[C@](CI)([C@H]3CC[C@H]4O[C@@H]([C@]5(C)CC[C@@H](Br)C(C)(C)O5)CC[C@]4(C)O3)O2)O1 [Compound 15, 28-iodosaiyacenol B]	–	54.3 ± 6.56 µM	> 100 µM	–
C[C@@H]1[C@H](O)[C@@H](C)/C=C/C=C/C=C/C=C/C=C/C=C/C=C/[C@H](O[C@@H]2O[C@H](C)[C@@H](O)[C@H](N)[C@@H]2O)C[C@@H]2O[C@](O)(C[C@@H](O)C[C@@H](O)[C@H](O)CC[C@@H](O)C[C@@H](O)CC(=O)O[C@H]1C)C[C@H](O)[C@H]2C(=O)O [Amphotericin B, amphotericin B, reference compound]	> 100 µM	39.6 ± 0.56 µM	–	–
CC(C)(O)[C@H]1CC[C@](C)([C@@H](O)CC[C@](C)(O)[C@H]2CC[C@H]3O[C@@H]([C@]4(C)CC[C@@H](Br)C(C)(C)O4)CC[C@]3(C)O2)O1 [Compound 2, thyrsiferol]	–	–	–	toxicity against murine macrophages (in words) [4]: not toxic against murine macrophages; CC50, toxicity against murine macrophage J774A.1 (unit not given) ([4]; 24 h): < 50; CC50 at 24 h [2]: > 100 µM; IC50 [3]: 14 ± 1.57 µM
CC(C)(O)[C@H]1CC[C@](C)([C@@H](O)CCC(O)(CO)[C@H]2CC[C@H]3O[C@@H]([C@]4(C)CC[C@@H](Br)C(C)(C)O4)CC[C@]3(C)O2)O1 (some centres unmarked) [Compound 16, 28-hydroxythyrsiferol]	–	104 ± 8.42 µM	> 100 µM	–
C=C(CCC(=O)[C@@]1(C)CC[C@H](C(C)(C)O)O1)[C@H]1CC[C@H]2O[C@@H]([C@]3(C)CC[C@@H](Br)C(C)(C)O3)CC[C@]2(C)O1 [Compound 13, 18-ketodehydrothyrsiferol]	–	29.1 ± 2.84 µM	23.4 ± 1.76 µM	–
[H]/N=C(\N/C(=N/[H])NCCCCCCNC(=N)NC(=N)Nc1ccc(Cl)cc1)Nc1ccc(Cl)cc1 [Chlorhexidine, chlorhexidine, reference compound]	6.64 ± 0.35 µM	–	–	–
C=C(C)[C@@H]1CC[C@@](C)([C@H]2CC[C@]3(C)O[C@@H](C(=C)CC[C@H](O)[C@@]4(C)CC[C@H](C(C)(C)O)O4)CC[C@H]3O2)O1 [Compound 5, 1,2-dehydropseudodehydrothyrsiferol]	> 100 µM	105 ± 1.72 µM	–	–
CC(C)(O)[C@H]1CC[C@](C)([C@@H]2CC[C@@](C)([C@H]3CC[C@H]4O[C@@H]([C@]5(C)CC[C@@H](Br)C(C)(C)O5)CC[C@]4(C)O3)O2)O1 [Compound 6, saiyacenol A]	–	55.4 ± 6.56 µM	59.9 ± 8.5 µM	–
C=C(CC[C@H](OS(=O)(=O)O)[C@@]1(C)CC[C@H](C(C)(C)O)O1)[C@H]1CC[C@H]2O[C@@H]([C@]3(C)CC[C@@H](Br)C(C)(C)O3)CC[C@]2(C)O1 [Compound 12, 18-sulphatedehydrothyrsiferol]	–	43.18 ± 0.14 µM	> 100 µM	–
CC(C)(O)[C@H]1CC[C@](C)([C@@H]2CC[C@@](CI)([C@H]3CC[C@H]4O[C@@H]([C@]5(C)CC[C@@H](Br)C(C)(C)O5)CC[C@]4(C)O3)O2)O1 [Compound 14, 28-iodosaiyacenol A]	–	50.5 ± 3.05 µM	29.45 ± 0.2 µM	–
CC(C)(O)[C@H]1CC[C@](C)([C@@H]2CC[C@](CO)([C@H]3CC[C@H]4O[C@@H]([C@]5(C)CC[C@@H](Br)C(C)(C)O5)CC[C@]4(C)O3)O2)O1 [Compound 9, 28-hydroxysaiyacenol B]	–	59.9 ± 10.1 µM	> 100 µM	–
CC(C)(O)[C@H]1CC[C@](C)([C@@H]2CC[C@](C)([C@H]3CC[C@H]4O[C@@H]([C@]5(C)CC[C@@H](Br)C(C)(C)O5)CC[C@]4(C)O3)O2)O1 [Compound 7, saiyacenol B]	–	77.9 ± 3.3 µM	> 100 µM	–
C=C(CC[C@H](O)[C@@]1(C)CC[C@@H](O)C(C)(C)O1)[C@H]1CC[C@H]2O[C@@H]([C@]3(C)CC[C@@H](Br)C(C)(C)O3)CC[C@]2(C)O1 [Compound 3, iubol]	–	5.3 ± 0.87 µM	7.72 ± 0.22 µM	inhibitory effect on the growth of A. castellanii trophozoites (microscopy) [5]: many of the treated cells were dead
CC(C)(O)[C@H]1CC[C@](C)([C@@H]2CC[C@@](CO)([C@H]3CC[C@H]4O[C@@H]([C@]5(C)CC[C@@H](Br)C(C)(C)O5)CC[C@]4(C)O3)O2)O1 [Compound 8, 28-hydroxysaiyacenol A]	–	66.2 ± 3.81 µM	> 100 µM	–
CC(C)(O)C1CCC(C)(C2CCC(C)(C3CCC(C(C)(O)CCC4OC(C)(C)C5CCC4(C)O5)O3)O2)O1 (centres unmarked) [Compound 10, nivariol A]	> 100 µM	102 ± 9.57 µM	–	–
CC1(C)O[C@](C)([C@H]2CC[C@]3(C)OC(=O)CC[C@H]3O2)CC[C@H]1Br [Compound 11, adejene B]	> 100 µM	48.3 ± 0.55 µM	–	–
